One data set concerns Boophilus microplus. As to the kind of experiment: Boophilus microplus test (BOOPMI injection). Format: in vivo. The conditions noted are these: application rate 20 μg/animal; injected into the abdomen; after 7 days. As to the method:
Boophilus microplus Test (BOOPMI Injection) Solvent: dimethyl sulphoxide To prepare an appropriate active ingredient formulation, 10 mg of active ingredient are mixed with 0.5 ml of solvent and the concentrate is diluted with solvent to the desired concentration. The active ingredient solution is injected into the abdomen (Boophilus microplus), and the animals are transferred into dishes and stored in a climate-controlled room. After 7 days, the efficacy in % is determined. The activity is assessed by laying of fertile eggs. 100% means that none of the ticks has laid any fertile eggs.

Another data set deals with Ctenocephalides felis. In words: Ctenocephalides felis oral (CTECFE). Format: in vivo. The conditions noted are these: application rate 100 ppm in citrated cattle blood; after 2 days. Here is the method: Ctenocephalides felis Oral ([…]) Solvent: 1 part by weight of dimethyl sulphoxide For the purpose of preparing an appropriate active ingredient formulation, 10 mg of active ingredient are mixed with 0.5 ml of dimethyl sulphoxide. A portion of the concentrate is diluted with citrated cattle blood, and the desired concentration is prepared. About 20 unfed adult fleas (Ctenocephalides felis) are placed into a chamber which is closed at the top and bottom with gauze. A metal cylinder whose bottom end is closed with Parafilm is placed onto the chamber. The cylinder contains the blood/active ingredient formulation, which can be imbibed by the fleas through the Parafilm membrane. After 2 days, the kill in % is determined 100% means that all of the fleas have been killed; 0% means that none of the fleas have been killed.

The test system of the next data set is Lucilia cuprina larvae. In words: Lucilia cuprina test (LUCICU). Format: in vivo. The settings on record: application rate 100 ppm; treated horse meat; after 2 days. As to the method:
Lucilia cuprina Test (LUCICU) Solvent: dimethyl sulphoxide To prepare an appropriate active ingredient formulation, 10 mg of active ingredient are mixed with 0.5 ml of dimethyl sulphoxide and the concentrate is diluted with water to the desired concentration. Vessels containing horse meat treated with the active ingredient formulation of the desired concentration are populated with about 20 Lucilia cuprina larvae. After 2 days, the kill in % is determined. 100% means that all of the larvae have been killed; 0% means that none of the larvae have been killed.

In another data set the test system is Phaedon cochleariae. As to the kind of experiment: Phaedon test (PHAECO spray treatment). The settings on record: application rate 100 g/ha; Chinese cabbage leaf discs; after 7 days. Format: in vivo. The essentials: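 Larval mortality was assessed 7 days after Phaedon cochleariae larvae were placed on dried, spray-treated Brassica pekinensis leaf discs. The formulation was an acetone/dimethylformamide concentrate with alkylaryl polyglycol ether emulsifier, diluted in emulsifier-containing water. Results are given as % kill, from 0 (no larvae dead) to 100 (all dead).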

Another data set has as its system Spodoptera frugiperda. In words: Spodoptera frugiperda test (SPODFR spray treatment). Format: in vivo. The conditions noted are these: application rate 100 g/ha; maize leaf discs; after 7 days. The essentials:
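Mortality read-out at 7 days, given as % efficacy, where 100% means every caterpillar dead and 0% none. Caterpillars were placed on dried maize leaf discs that had been sprayed with test formulation. That formulation was an acetone/dimethylformamide concentrate diluted in emulsifier-containing water.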

The test system of another data set is Tetranychus urticae. As to the kind of experiment: Tetranychus test, OP-resistant (TETRUR spray treatment). The class given is in vivo. The settings on record: bean leaf discs, after 6 days. As to the method:
Tetranychus Test, OP-Resistant (TETRUR Spray Treatment)
Solvent: 78.0 parts by weight of acetone • • 1.5 parts by weight of dimethylformamide
Emulgator: 0.5 part by weight of alkylaryl polyglycol ether
To produce an appropriate active ingredient formulation, 1 part by weight of active ingredient is mixed with the stated amounts of solvent and emulsifier, and the concentrate is diluted with emulsifier-containing water to the desired concentration.
Discs of bean leaves (Phaseolus vulgaris) infested by all stages of the red spider mite (Tetranychus urticae) are sprayed with an active ingredient formulation of the desired concentration.
After 6 days, the efficacy in % is determined. 100% means that all of the spider mites have been killed; 0% means that none of the spider mites have been killed.

A further data set is described as follows: logP (HPLC-MS). The class given is physicochemical. The settings on record: HPLC, reversed-phase column (C18), acidic range pH 2.7, acetonitrile (0.1% formic acid)/water gradient, 43° C., calibration with unbranched alkan-2-ones.

For `CCn1c(C(=O)NC(c2cccc(Cl)c2)C(F)(F)F)cc2cc(C(=O)NC3CC3)c(Cl)cc21` (centres unmarked) [Compound 2], the “efficacy (laying of fertile eggs)” value in the data set on Boophilus microplus is recorded as 100%. The “efficacy (kill in %)” value with Ctenocephalides felis was 95%; in the data set with Lucilia cuprina larvae, 100%. The efficacy in % in the data set with Phaedon cochleariae, with Spodoptera frugiperda and in the data set with Tetranychus urticae (application rate 500 g/ha) was 100% each time. In the data set “logP (HPLC-MS)”, this compound returned a log p of 3.65.

On to `C#CC1(NC(=O)c2cc3cc(C(=O)NC(c4cccc(C(F)(F)F)c4)C(F)(F)F)n(CC)c3cc2Cl)CC1` (centres unmarked) [Compound 32], for which the “efficacy (laying of fertile eggs)” value with Boophilus microplus came out at 100%. For the same compound, the “efficacy (kill in %)” value with Ctenocephalides felis and in the data set on Lucilia cuprina larvae was 100% in each case. Besides, the efficacy in % in the data set on Phaedon cochleariae and in the data set with Tetranychus urticae (application rate 100 g/ha) was 100% each time. Further, the log p in “logP (HPLC-MS)” is reported as 3.86.

As for `Cn1c(C(=O)NC(c2cccc(Br)c2)C(F)(F)F)cc2cc(C(=O)NC3(C#N)CC3)c(Cl)cc21` (centres unmarked) [Compound 48], the “efficacy (laying of fertile eggs)” value with Boophilus microplus is 100%. In addition, the “efficacy (kill in %)” value in the data set on Ctenocephalides felis and with Lucilia cuprina larvae was 100% each time. The efficacy in % in the data set on Phaedon cochleariae, with Spodoptera frugiperda and in the data set on Tetranychus urticae (application rate 100 g/ha) was 100% throughout. In the data set “logP (HPLC-MS)”, this compound came in with a log p of 3.39.

Consider `CCn1c(C(=O)NC(c2cccc(Br)c2)C(F)(F)F)cc2cc(C(=O)NC3(C#N)CC3)c(Cl)cc21` (centres unmarked) [Compound 41], for which, in the data set with Boophilus microplus, the “efficacy (laying of fertile eggs)” value came out at 100%. Also, the “efficacy (kill in %)” value in the data set on Ctenocephalides felis and in the data set on Lucilia cuprina larvae was 100% throughout. For the same compound, the efficacy in % with Spodoptera frugiperda and in the data set with Tetranychus urticae (application rate 100 g/ha) was 100% each time. In the data set “logP (HPLC-MS)”, the log p came out at 3.75.

Consider `CCn1c(C(=O)NC(c2cccc(C(F)(F)F)c2)C(F)(F)F)cc2cc(C(=O)NC(C)CF)c(Cl)cc21` (centres unmarked) [Compound 8], for which the “efficacy (laying of fertile eggs)” value with Boophilus microplus came out at 100%. Further, the “efficacy (kill in %)” value with Ctenocephalides felis stood at 95%; in the data set with Lucilia cuprina larvae, 100%. Further, the efficacy in % with Phaedon cochleariae and with Spodoptera frugiperda was 100% throughout. Also, the log p in the data set “logP (HPLC-MS)” amounted to 3.88.

For the compound `CCn1c(C(=O)NC(c2cccc(Cl)c2)C(F)(F)F)cc2cc(C(=O)NC3(C#N)CC3)c(Cl)cc21` (centres unmarked) [Compound 39], the “efficacy (laying of fertile eggs)” value in the data set with Boophilus microplus was 100%. For the same compound, the “efficacy (kill in %)” value with Ctenocephalides felis and in the data set with Lucilia cuprina larvae was 100% each time. Besides, the efficacy in % in the data set on Phaedon cochleariae, in the data set with Spodoptera frugiperda and with Tetranychus urticae (application rate 100 g/ha) was 100% in each case. For the same compound, the log p in “logP (HPLC-MS)” came out at 3.67.

For `CCn1c(C(=O)NC(c2cccc(C(F)(F)F)c2)C(F)(F)F)cc2cc(C(=O)NC3(C#N)CCC3)c(Cl)cc21` (centres unmarked) [Compound 36], the “efficacy (laying of fertile eggs)” value in the data set with Boophilus microplus is recorded as 100%. In addition, the “efficacy (kill in %)” value worked out at 100% in the data set on Ctenocephalides felis and 95% in the data set on Lucilia cuprina larvae. Also, the efficacy in % with Phaedon cochleariae, with Spodoptera frugiperda and in the data set on Tetranychus urticae (application rate 100 g/ha) was 100% throughout. In addition, the log p in the data set “logP (HPLC-MS)” is on record as 4.09.

Regarding `CCn1c(C(=O)NC(c2cccc(C(F)(F)F)c2)C(F)(F)F)cc2cc(C(=O)NC3(C(=O)OC)CC3)c(Cl)cc21` (centres unmarked) [Compound 28], the “efficacy (laying of fertile eggs)” value with Boophilus microplus was 100%. Further, the “efficacy (kill in %)” value was determined as 95% in the data set with Ctenocephalides felis and 100% with Lucilia cuprina larvae. Besides, the efficacy in % with Phaedon cochleariae was 100%; with Spodoptera frugiperda it was 83%; in the data set on Tetranychus urticae (application rate 500 g/ha), 100%. In addition, the log p in “logP (HPLC-MS)” worked out at 3.86.
